Measured values reported in patent publication US12371432B2, “Haloallylamine compounds and application thereof” (TransThera Sciences (Nanjing), Inc., priority 2019, dated 2025).
Where a name gives a salt, the structure may show the parent alone. Read-outs that look alike come from different tables or passages of the source.

Assays:
Rat PK evaluation = type: in vivo; conditions: plasma, SD rats; for bioavailability: n=3, read-out: F % (absolute bioavailability); for clearance: n=3, read-out: Cl_obs iv (clearance rate) (converted); for Vd: n=3, read-out: Vz_obs iv (apparent volume of distribution); for Tmax: n=3, median, read-out: Tmax po (time of maximum observed plasma concentration)
Method: Animal Administration and Sample Collection:
The study compounds A1, A6, A32, A41 and A42 were each dissolved in normal saline to prepare solutions. The solutions of the compounds were separately administered to SD rats by intragastric administration at a dose of 5.0 mg/kg. Time points for blood collection were 15 min, 30 min, 1 h, 2 h, 4 h, 6 h, 8 h and 24 h.
The study compounds A1, A6, A32, A41 and A42 were each dissolved in normal saline to prepare solutions. The solutions of the compounds were separately administered to SD rats by intravenous push at a dose of 1.0 mg/kg. Time points for blood collection were 5 min, 15 min, 30 min, 1 h, 2 h, 4 h, 6 h, 8 h and 24 h.
Venous catheterization was performed the day before the administration. Subsequent to the administration, about 300 μL of blood was collected from the jugular vein and put into anticoagulation tubes containing EDTA-K2. Preparation was performed within 30 min after the blood collection. Plasma samples were obtained by centrifugation at 8,000 rpm for 6 min at 4° C., and were stored in a −80° C. refrigerator before plasma testing.
(1) the samples to be tested were taken out of the −80° C. refrigerator, naturally thawed at room temperature and then swirled for 5 min;
(2) 20 μL of plasma sample was accurately pipetted into a 1.5 mL centrifuge tube;
(3) 200 μL of internal standard working solution (solution of tolbutamide in methanol) with a concentration of 100 ng/mL was added, and uniform mixing was performed;
(4) after 5 min of swirling, centrifugation was performed at 12,000 rpm for 5 min;
(5) 50 μL of supernate was accurately pipetted into a 96-well plate added with 150 μL water/well in advance;
(6) uniform mixing was performed by swirling for 5 min, followed by LC-MS/MS assay.
Analyst 1.6.3 from AB Sciex was used to output concentration results of tested compounds. Microsoft Excel was used to calculate parameters such as mean value, standard deviation and variation coefficient (excluding those outputted directly by Analyst 1.6.3). Pharsight Phoenix 6.1 software NCA was adopted to calculate PK parameters (Tmax was median).

rhAOC1 = biological target: T1, rhAOC1 (Homo sapiens, UniProt P19801); assay: Selectivity against rhAOC1 enzyme (Biological Example 1); type: biochemical; conditions: Table 1; histamine substrate, Amplex Red/HRP
T1 construct: purchased R&D
T1 sequence (P19801 20-751): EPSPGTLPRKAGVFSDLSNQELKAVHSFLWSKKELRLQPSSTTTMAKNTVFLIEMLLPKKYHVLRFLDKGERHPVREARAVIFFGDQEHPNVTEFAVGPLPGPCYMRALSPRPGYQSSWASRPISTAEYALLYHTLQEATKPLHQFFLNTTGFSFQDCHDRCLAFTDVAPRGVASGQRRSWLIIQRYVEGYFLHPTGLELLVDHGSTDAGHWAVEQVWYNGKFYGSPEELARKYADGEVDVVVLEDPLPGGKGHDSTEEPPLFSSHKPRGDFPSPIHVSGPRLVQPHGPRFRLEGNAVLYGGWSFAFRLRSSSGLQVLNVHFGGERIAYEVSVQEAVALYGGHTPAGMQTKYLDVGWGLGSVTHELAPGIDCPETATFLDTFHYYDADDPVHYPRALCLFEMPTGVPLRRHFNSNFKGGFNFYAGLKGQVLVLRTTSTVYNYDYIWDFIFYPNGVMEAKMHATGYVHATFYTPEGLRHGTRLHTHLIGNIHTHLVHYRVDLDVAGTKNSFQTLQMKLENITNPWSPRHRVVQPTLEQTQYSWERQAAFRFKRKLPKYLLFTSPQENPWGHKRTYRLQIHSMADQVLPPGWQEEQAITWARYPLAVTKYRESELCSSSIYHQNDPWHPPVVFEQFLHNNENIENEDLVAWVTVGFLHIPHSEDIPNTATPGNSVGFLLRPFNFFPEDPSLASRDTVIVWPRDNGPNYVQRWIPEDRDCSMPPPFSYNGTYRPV
Method: 2. Selectivity of Compounds Against rhAOC1 Enzyme
(1) Instrument, Consumable and Reagent
Microplate reader (Perkin Elmer, Nivo 5S), black unclear-bottom 96-well plate (Corning) and rhAOC1 (R&D)
(2) Preparation of Concentration Gradient Compound Solutions
An appropriate amount of the compound to be tested was taken, dissolved in DMSO to 10 mM and then stored. Before the study, an appropriate amount of mother liquor of the 10 mM compound to be tested was taken and gradiently diluted 3-fold with DMSO, 10 concentration gradients in total. Each concentration gradient was then diluted 10-fold with 0.1 M of PBS.
(3) Preparation of Enzyme Solutions
An appropriate amount of rhAOC1 mother liquor with a concentration of 0.441 mg/mL was taken and diluted with an appropriate amount of 50 mM HEPES buffer solution to obtain enzyme solutions of 4× concentrations.
(4) Preparation of Substrate Mixtures of 2× Concentrations
An appropriate amount of histamine was weighed and dissolved with 50 mM of HEPES buffer solution to obtain 20 mM of histamine solution. The histamine solution was added with 2 mM of Amplex Red mother liquor and 500 U/mL of HRP mother liquor and diluted with 50 mM of HEPES buffer solution to obtain substrate mixtures of 2× concentrations.
10 μL compound solutions of different concentrations, 25 μL rhAOC1 enzyme solutions of 4× concentrations and 15 μL of 50 mM HEPES buffer solution were first added into a 96-well plate, shaken to be mixed uniformly and then incubated at 37° C. for 30 min. 50 μL substrate mixtures of 2× concentrations were then added into each well, and the microplate reader was immediately used to detect fluorescence intensity of each well with 580 nm (20 nm) exciting light and 620 nm (10 nm) emission light for 5 min each time, 30 min in total. […]
V: fluorescence change rate; Ft: fluorescence reading at time point t; F0: initial fluorescence reading; Time: duration t; Vcmpd: fluorescence change rate of tested compound; Vmax: Max hole fluorescence change rate. […]

[1] = IV 1 mg/kg, n=3, read-out: AUCinf iv (area under plasma concentration-time curve 0-∞)
[2] = IV 1 mg/kg, n=3, read-out: tz1/2 iv (terminal half-life) (converted)
[3] = PO 5 mg/kg, n=3, read-out: AUCinf po (area under plasma concentration-time curve 0-∞)
[4] = PO 5 mg/kg, n=3, read-out: tz1/2 po (terminal half-life) (converted)

| bioavailability (Rat PK evaluation; IV 1 mg/kg, PO 5 mg/kg) | AUC(0-inf) (Rat PK evaluation; [1]) | clearance (Rat PK evaluation; IV 1 mg/kg) | Vd (Rat PK evaluation; IV 1 mg/kg) | half-life (Rat PK evaluation; [2]) | Tmax (Rat PK evaluation; PO 5 mg/kg) | AUC(0-inf) (Rat PK evaluation; [3]) | half-life (Rat PK evaluation; [4]) | IC50 (rhAOC1) | Structure (SMILES) |
| --- | --- | --- | --- | --- | --- | --- | --- | --- | --- |
| 151% | 591 ng·h/mL | 29.5 mL/min/kg | 1.29 L/kg | 31.8 min | 60 min | 4480 ng·h/mL | 79.8 min |  | Cl.NC/C(=C\F)Cn1cc2c(c1Cl)CCN(C1CC1)C2=O [Compound A42 hydrochloride, (E)-2-(2-(aminomethyl)-3-fluoroallyl)-1-chloro-5-cyclopropyl-2,5,6,7-tetrahydro-4H-pyrrolo[3,4-c]pyridin-4-one] |
| 61.9% | 531 ng·h/mL | 31.5 mL/min/kg | 1.53 L/kg | 33.6 min | 60 min | 1640 ng·h/mL | 107 min |  | NC/C(=C\F)Cn1cc2c(=O)n(C3CC3)ccc2n1 [Compound A41, (E)-2-(2-(aminomethyl)-3-fluoroallyl)-5-cyclopropyl-2,5-dihydro-4H-pyrazolo[4,3-c]pyridin-4-one] |
| 173% | 572 ng·h/mL | 29.2 mL/min/kg | 1.2 L/kg | 28.8 min | 15 min | 4950 ng·h/mL | 45 min |  | Cl.NC/C(=C\F)Cn1cc2c(c1Br)CCN(C1CC1)C2=O [Compound A32 hydrochloride, (E)-2-(2-(aminomethyl)-3-fluoroallyl)-1-bromo-5-cyclopropyl-2,5,6,7-tetrahydro-4H-pyrrolo[3,4-c]pyridin-4-one] |
|  |  |  |  |  |  |  |  | > 10 µM | NC/C(=C\F)Cn1ncc2c1CCN(C1CC1)C2=O [Compound A2 hydrochloride, (E)-1-(2-(aminomethyl)-3-fluoroallyl)-5-cyclopropyl-1,5,6,7-tetrahydro-4H-pyrazolo[4,3-c]pyridin-4-one] |
| 76.3% | 445 ng·h/mL | 37.8 mL/min/kg | 2.38 L/kg | 43.8 min | 30 min | 1700 ng·h/mL | 65.4 min |  | CCN1CCc2nn(C/C(=C/F)CN)cc2C1=O [Compound A6 hydrochloride, (E)-2-(2-(aminomethyl)-3-fluoroallyl)-5-ethyl-2,5,6,7-tetrahydro-4H-pyrazolo[4,3-c]pyridin-4-one] |
| 87% | 545 ng·h/mL | 30.8 mL/min/kg | 2.31 L/kg | 52.2 min | 120 min | 2370 ng·h/mL | 70.2 min | 22.1 µM | NC/C(=C\F)Cn1cc2c(n1)CCN(C1CC1)C2=O [Compound A1, (E)-2-(2-(aminomethyl)-3-fluoroallyl)-5-cyclopropyl-2,5,6,7-tetrahydro-4H-pyrazolo[4,3-c]pyridin-4-one] |
